Measured values: patent publication US20070092444A1, “Inhibition of inward sodium currents in cancer” (priority 2003, published 2007)

Columns and labels:
[1] = Activity of tyrosine-extended PcTX1 compared with unmodified PcTX1
U87-MG and SK-MG cells = experiment: [^3H]-thymidine incorporation; format: cell-based, human; conditions: same concentration range (10-100 μM)
Description: (§1) If the Na^+ conductance seen in high-grade glioma cells was required or linked to the high rate of cell growth, inhibition of the pathway should result in inhibition of cell growth and/or cell death. […] However, benzamil is ineffective in inhibiting Na^+/H^+ exchange in glial cells (73), yet still can inhibit proliferation in this assay. […] Therefore, inhibition of the inward Na^+ current results in inhibition and/or stoppage of cell growth. These observations establish the importance of this pathway in tumor cell biology.

U87-MG cells = experiment: Transwell Migration Assay, U87-MG cells; format: cell-based, human; conditions: concentration-dependent
[2] = tested on: SKMG, U373, and U251 glioma cell lines; experiment: MTT Cell Proliferation Assay, three GBM cell lines; format: cell-based, human; conditions: drug concentrations between 10-100 μM
Protocol: Cells were plated in 96-well plates at 1000, 4000, and 2000 cells/well for SK-MG, U373, and U251 cells, respectively. Drug was added at specified concentration on day 3 after plating (at the beginning of log phase of growth).
as §1

ASIC1+ASIC2+γ-hENaC = target: T1, ASIC1+ASIC2+γ-hENaC (Homo sapiens, UniProt P51170+P78348+Q16515); experiment: ASIC1+ASIC2+γ-hENaC in planar lipid bilayers; format: biochemical; conditions: 25 μM, cis bathing solution; γ-hENaC co-expressed with ASIC1/2
T1 construct: made in house; host or cells: Xenopus oocytes (membrane vesicles)
Protocol: FIGS. 14A and B show the effect of syntaxin 1A on ASIC1+ASIC2 (FIG. 14A) and ASIC1+ASIC2+γ-hENaC (FIG. 14B) in planar lipid bilayers. The holding potential was +100 mV and records were filtered at 200 Hz.
The effect of syntaxin 1A on constitutive amiloride-sensitive inward Na^+ current activity in planar lipid bilayers was examined (FIGS. 14A and B). For these experiments, membrane vesicles were prepared from oocytes that were previously injected with cRNA encoding both ASIC1 and ASIC2±γ-hENaC. […] Syntaxin 1A was then added as a GST fusion protein to the cis (or cytoplasmic) bathing solution. […] The same results were found in oocyte expression studies (FIG. 15).

T1 sequence (Q16515 whole entry): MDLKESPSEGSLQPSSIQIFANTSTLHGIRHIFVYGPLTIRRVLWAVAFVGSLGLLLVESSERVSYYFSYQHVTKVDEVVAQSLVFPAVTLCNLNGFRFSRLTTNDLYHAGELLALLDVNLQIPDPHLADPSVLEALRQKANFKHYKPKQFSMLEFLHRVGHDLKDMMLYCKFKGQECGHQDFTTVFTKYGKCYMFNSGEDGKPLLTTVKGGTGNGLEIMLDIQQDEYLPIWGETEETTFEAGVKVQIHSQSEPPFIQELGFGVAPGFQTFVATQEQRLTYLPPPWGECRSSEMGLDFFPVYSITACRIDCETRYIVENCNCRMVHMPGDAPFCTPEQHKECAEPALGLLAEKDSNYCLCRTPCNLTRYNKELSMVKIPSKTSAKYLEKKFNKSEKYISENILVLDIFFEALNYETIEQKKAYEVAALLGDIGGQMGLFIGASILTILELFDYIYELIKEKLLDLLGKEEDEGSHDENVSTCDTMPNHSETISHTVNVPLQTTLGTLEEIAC
T1 sequence (P78348 whole entry): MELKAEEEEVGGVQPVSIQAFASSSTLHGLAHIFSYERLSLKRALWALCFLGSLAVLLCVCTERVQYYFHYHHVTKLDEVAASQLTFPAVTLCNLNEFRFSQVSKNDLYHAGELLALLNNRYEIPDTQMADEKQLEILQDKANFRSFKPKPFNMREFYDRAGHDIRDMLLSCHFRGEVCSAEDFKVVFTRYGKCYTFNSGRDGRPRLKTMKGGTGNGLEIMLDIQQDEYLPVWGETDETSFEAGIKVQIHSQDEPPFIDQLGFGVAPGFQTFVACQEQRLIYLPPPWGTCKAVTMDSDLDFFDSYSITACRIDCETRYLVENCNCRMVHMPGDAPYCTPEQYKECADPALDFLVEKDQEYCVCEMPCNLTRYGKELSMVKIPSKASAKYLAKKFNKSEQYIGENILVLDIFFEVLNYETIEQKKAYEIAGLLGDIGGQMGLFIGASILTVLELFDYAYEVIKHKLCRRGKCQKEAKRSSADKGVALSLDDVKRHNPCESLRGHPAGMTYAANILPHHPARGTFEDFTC
T1 sequence (P51170 whole entry): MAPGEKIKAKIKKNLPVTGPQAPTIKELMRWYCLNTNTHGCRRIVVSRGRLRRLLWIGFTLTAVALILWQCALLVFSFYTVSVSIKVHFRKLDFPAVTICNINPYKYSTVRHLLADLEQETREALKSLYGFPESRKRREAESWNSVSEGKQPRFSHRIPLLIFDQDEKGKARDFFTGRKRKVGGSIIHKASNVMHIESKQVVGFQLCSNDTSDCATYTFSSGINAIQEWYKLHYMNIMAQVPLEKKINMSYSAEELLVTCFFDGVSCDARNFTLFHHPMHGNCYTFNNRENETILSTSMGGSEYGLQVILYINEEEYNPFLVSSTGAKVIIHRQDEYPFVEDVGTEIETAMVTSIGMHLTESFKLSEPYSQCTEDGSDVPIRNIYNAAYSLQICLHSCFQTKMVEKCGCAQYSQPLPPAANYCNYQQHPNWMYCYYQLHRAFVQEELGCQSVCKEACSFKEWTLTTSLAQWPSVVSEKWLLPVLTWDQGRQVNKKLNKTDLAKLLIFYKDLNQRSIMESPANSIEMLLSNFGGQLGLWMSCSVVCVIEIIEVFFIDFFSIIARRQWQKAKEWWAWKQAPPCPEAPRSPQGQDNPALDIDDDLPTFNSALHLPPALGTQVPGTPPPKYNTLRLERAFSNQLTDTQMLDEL

SEQ ID NO. 2: PcTX1 with a tyrosine residue or other residue at one end to aid linking to the tag protein (EDCIPKWKGCVNRHGDCCEGLECWKRRRSFEVCVPKTPKTY; listed as Psalmopoeus cambridgei)
activity relative to unmodified PcTX1 [1]: identical to the unmodified PcTX1 sequence

N=C(N)NC(=O)c1ncc(N)nc1N [N-amidino-3,5-diamino-pyrazinecarboxamide]
[^3H]-thymidine incorporation (U87-MG and SK-MG cells): did not affect | Transwell migration (U87-MG cells): did not

NC(=Nc1ccccc1)NC(=O)c1nc(Cl)c(N)nc1N [phenamil]
relative rate of proliferation [2]: significantly inhibited

B1: syntaxin 3: syntaxin family member used as specificity control (protein, UniProt Q13277 1-289, looked up)
Syntaxin-3: MKDRLEQLKAKQLTQDDDTDAVEIAIDNTAFMDEFFSEIEETRLNIDKISEHVEEAKKLYSIILSAPIPEPKTKDDLEQLTTEIKKRANNVRNKLKSMEKHIEEDEVRSSADLRIRKSQHSVLSRKFVEVMTKYNEAQVDFRERSKGRIQRQLEITGKKTTDEELEEMLESGNPAIFTSGIIDSQISKQALSEIEGRHKDIVRLESSIKELHDMFMDIAMLVENQGEMLDNIELNVMHTVDHVEKARDETKKAVKYQSQARKKLIIIIVLVVVLLGILALIIGLSVGLN
inhibition of channel Po (ASIC1+ASIC2+γ-hENaC): without effect
